{"source": "patent US9278924B2", "about": "“5-nonyloxytryptamine and related intracellular PH acidifiers for the treatment and prevention of cancer” (THE JOHNS HOPKINS UNIVERSITY, priority 2011, dated 2016)", "key": {"[1]": {"tested_on": "GBM neurosphere lines", "assay": "cAMP GLO assay of cellular cAMP levels", "assay_type": "cell-based", "conditions": "three GBM neurosphere lines", "text": "In this assay cAMP levels are inversely correlated with luminescence (RLU). Cyanopindolol is a Gα antagonist and is required for detection of 5HTR1B activity. Sumatriptan, another 5HTR1B agonist (similar to 5-NOTO), and forskolin {a known Gα agonist) were used as controls.\nThe Serotonin Receptors 5HTR1B and 5HTR1A are Not the Target Of 5-NOTO Action in GBM. 5-NOTO is not an FDA approved drug but its biological target is known. 5-NOTO is a specific agonist for the 5HTR1B serotonin receptor (400 times more specific for 5HTR1B then for 5HTR1A). 5HTR1B (as well as other 5HTR1 isoforms) are heterotrimeric G-protein coupled receptors which interact with Gα an inhibitor of adenylate cyclase. Therefore, we sought to determine if treatment with 5-NOTO will result in decreased cellular cAMP levels as activation of Gα should inhibit adenylate cydase, the enzyme which catalyzes the conversion of ATP to cAMP. To this end, cells were treated with cyanopindolol, an antagonist of 5HTR1B, which should increase adenylate cyclase activity (if 5HTR1B is functional), and either 5-NOTO or sumatriptan, the latter being similar to 5-NOTO, activating both 5HTR1B and 5HTR1A. […] Importantly, sumatriptan also had no effect on cellular cAMP levels, strengthening the notion that 5HTR1B (and likely 5HTR1A) have very little to no effect on cellular cAMP levels in the GBM models."}, "[2]": {"assay": "Guava ViaCount viability assay", "assay_type": "cell-based", "conditions": "human, uveal melanoma cell line OCM1, read-out: percentage of viable cells", "protocol": "(§1) Cells were plated in 24-well plates and treated with DMSO or t 10 μM 5-NOTO. 48 hours later, cell viability was determined using Guava PCA flow cytometer with Guava ViaCount reagent.\n(§2) We next sought to examine if 5-NOTO is generally cytotoxic or if its cytotoxicity may be specific to some cancer types. To this end, we examined the apoptotic induction in a uveal melanoma cell line, OCM 1. Cells were treated for 48 hours with 10 μM of 5-NOTO followed by Viacount assay. 5-NOTO had no effect on viability of OCM1 as the percentage of viable cells remained greater than 90% (FIG. 8). In contrast, percent viability in 020913 neurospheres treated with 10 μM 5-NOTO was only 10%."}, "[3]": {"tested_on": "GBM-derived neurosphere line 020913", "assay": "Guava ViaCount viability assay", "assay_type": "cell-based", "conditions": "48 h, read-out: percent viability", "protocol": "as §1, §2"}, "[4]": {"tested_on": "040622 GBM neurospheres", "assay": "Apoptosis/necrosis evaluation with Guava Nexin reagent, 30 minutes", "assay_type": "cell-based", "protocol": "Cells were treated with DMSO (control), the multi caspase inhibitor Z-VAD-FMK (20 μM), 5-NOTO (10 μM) or the latter two in combination. Guava Nexin assay reagent was used to determine Viable (black), apoptotic (yellow), and necrotic/apoptotic (Red) cell fractions.\nTo test necrotic cell death directly, cells were treated with DMSO (control) or 10 μM 5-NOTO for 30 minutes followed by apoptosis/necrosis evaluation using Guava PCA flow cytometer and Nexin reagent (Millipore). […] Similar results were documented for 020913 and 040821 neurospheres (not shown)."}, "[5]": {"target": "5HTR1B serotonin receptor (Homo sapiens, UniProt P28222)", "sequence (P28222 whole entry)": "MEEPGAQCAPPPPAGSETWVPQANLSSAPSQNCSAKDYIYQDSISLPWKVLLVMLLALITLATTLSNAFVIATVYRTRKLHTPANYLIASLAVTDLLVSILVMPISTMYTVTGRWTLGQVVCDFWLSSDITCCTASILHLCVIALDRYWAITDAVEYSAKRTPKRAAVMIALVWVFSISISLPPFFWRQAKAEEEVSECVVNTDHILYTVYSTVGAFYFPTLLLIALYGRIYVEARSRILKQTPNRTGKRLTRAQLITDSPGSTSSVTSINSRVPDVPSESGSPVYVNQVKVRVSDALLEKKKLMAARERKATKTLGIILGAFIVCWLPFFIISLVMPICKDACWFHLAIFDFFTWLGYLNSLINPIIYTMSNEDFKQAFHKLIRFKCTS", "conditions": "agonist; cited from earlier work"}, "[6]": {"tested_on": "GBM-derived neurosphere cell lines", "assay": "MTT growth assay", "assay_type": "cell-based", "conditions": "72 h, read-out: inhibition of growth (viable cell mass, MTT)", "protocol": "FIG. 2 depicts MTT growth assays for neurospheres treated with 5-NOTO. Cells were plated in 96-multiwell plates and treated with either DM50 (Control •) or 5-NOTO (at 1 uM ▪ and 10 μM ▴). MTT reagent was added to indirectly measure viable cell mass at each time point. Absorbance was measured wt 490 nm using an Epoch Microplate Spectrophotometer (BioTek).\n5-NOTO is a Potent Inhibitor of Cancer Cell Growth. To test the hypothesis that as a pH acidifier, 5-NOTO should reduce cell proliferation, we treated three independent GBM-derived neurosphere cell lines with DMSO (control), 1 μM, and 10 μM 5-NOTO for three days. Accumulation of viable cell mass was measured using MTT growth assay (Promega). Absorbance (A490) was measured using an Epoch Microplate Spectrophotometer (Biotek) at the indicated time points."}, "[7]": {"tested_on": "GBM neurospheres", "assay": "Elimination of viable cells at high 5-NOTO level", "assay_type": "cell-based", "conditions": "48 h, read-out: viable cells eliminated", "protocol": "(§3) 5-NOTO Induces Apoptosis in GBM Neurospheres. To ascertain that 5-NOTO induces apoptosis, cells were treated with DMSO (control), 1 μM, and 10 μM 5-NOTO for 24 hours at which point cells were processed for Annexin V apoptosis assay (Millipore), which is a simple and effective method to detect one of the earliest events in apoptosis, the externalization of phosphatidylserine in living cells. […] Higher levels of 5-NOTO (100 μM) eliminated the vast majority of viable cells (80-90%) 48 hours post treatment (Data not shown))."}, "[8]": {"tested_on": "GBM neurospheres 020913", "assay": "Necrosis by Nexin staining and flow cytometry, 90 minutes", "assay_type": "cell-based", "conditions": "10 μM, DMSO 13%", "protocol": "(§4) FIG. 9 depicts induction of necrotic cell death by 5-NOTO. GBM neurospheres 020913 and 040622 and normal neural stem cells immortalized with v-Myc (VNSC) were treated with DMSO (control, black bars) or with 10 μM 5-NOTO (red bars). Cells were treated for 90 minutes and then processed for viability assay using Nexin staining % Necrosis was determined by flow cytometry. […] VNSCs on the other hand were completely resistant to 5-NOTO showing 26% and 25% in DMSO and 5-NOTO treatments, respectively.\nas §4, with “Induction” for “FIG. 9 depicts induction”, “Necrotic Cell Death” for “necrotic cell death”, “5-NOTO.” for “5-NOTO (red bars).”"}, "[9]": {"tested_on": "GBM neurospheres 040622", "assay": "Necrosis by Nexin staining and flow cytometry, 90 minutes", "assay_type": "cell-based", "conditions": "10 μM, DMSO 5%", "protocol": "as §4\nas §4, with “Induction” for “FIG. 9 depicts induction”, “Necrotic Cell Death” for “necrotic cell death”, “5-NOTO.” for “5-NOTO (red bars).”"}, "[10]": {"tested_on": "normal neural stem cells immortalized with v-Myc (VNSC)", "assay": "Necrosis by Nexin staining and flow cytometry, 90 minutes", "assay_type": "cell-based", "conditions": "10 μM, DMSO 26%", "protocol": "as §4\nas §4, with “Induction” for “FIG. 9 depicts induction”, “Necrotic Cell Death” for “necrotic cell death”, “5-NOTO.” for “5-NOTO (red bars).”"}, "[11]": {"tested_on": "020913 neurospheres", "assay": "ATPlite luminescence assay of cellular ATP", "assay_type": "cell-based", "conditions": "1 μM and 10 μM, 1 or 3 hours", "protocol": "Cells were incubated for either 1 or 3 hours in the presence of DMSO (control) or 5-NOTO (1 μM and 10 μM), ATP levels were determined using ATPlite Luminescence Assay System (PerkinElmer) according to manufacturer instructions.\n5-NOTO Induces Rapid Necrosis in GBM Neurospheres. One of the classical features of necrotic cells is rapid and significant drop in intracellular ATP levels. The effect of 5-NOTO on ATP release was assayed at 1 hr and 3 hr post-treatment as follows. Briefly, 020913 neurospheres were triturated to a single-cell suspension and 20,000 cells were plated per well. Cells were plated in triplicates for vehicle alone, 1 μM 5-NOTO, and 10 μM 5-NOTO. At each time point, 100 μl of ATPlite 1-step reagent (Perkin Elmer) was added to each well and incubated with shaking for 2 minutes. After dark adaptation for 10 minutes, the samples were read using a microplate reader (Perkin Elmer). Readings were averaged and the percent differences in ATP release between treated and vehicle alone were calculated (RLU). This experiment was performed in triplicate with similar results (FIG. 6)."}, "[12]": {"tested_on": "GBM neurospheres", "assay": "Guava ViaCount cell viability, IC50 determination", "assay_type": "cell-based", "conditions": "48 hours, all neurospheres tested; read-out: IC50 (concentration required to kill 50% of the cells)", "protocol": "Cells were treated for 48 hours with various concentrations of 5-NOTO and incubated for 48 hours in humidified incubator as which point, Guava Viacount reagent (Millipore) was used to assess the percentage of viable cells remaining in each treatment well. IC50 (concentration of drug required for 50% reduction in cell viability) was calculated using Graphpad 5.0 software package. The respective IC50 is indicated for each neurosphere line.\nDetermination of cytotoxic effects. We next sought to determine the concentration of 5-NOTO which is required to kill 50% of the cells (e.g. IC50). Cells were plated in 24-well plates at 25,000 cells/well and treated for 48 hours with either DMSO (control) or various concentration of 5-NOTO (FIG. 2). Guava PCA flow cytometry system was used with the Guava Viawunt reagent (Millipore) to determine cell viability. Data was analyzed using GraphPad 5.0 software package. IC50 was calculated using non linear regression."}, "[13]": {"tested_on": "020913 GBM neurospheres", "assay": "Annexin V apoptosis assay", "assay_type": "cell-based", "conditions": "10 μM, 24 hours; DMSO 10-20%", "protocol": "(§5) FIG. 4 depicts apoptosis analysis for GBM neurospheres treated with 5-NOTO for 24 hours. Cells were plated and then treated for 24 hours with DMSO (control), 1 μM and 10 μM 5-NOTO. Cells were then processed for Annexin V assay using the Nexin reagent (Millipore) and % Annexin positive cells was determined using flow cytometry.\nas §3"}, "[14]": {"tested_on": "040622 GBM neurospheres", "assay": "Annexin V apoptosis assay", "assay_type": "cell-based", "conditions": "10 μM, 24 hours; DMSO 10-20%", "protocol": "as §5, §3"}, "[15]": {"tested_on": "040821 GBM neurospheres", "assay": "Annexin V apoptosis assay", "assay_type": "cell-based", "conditions": "10 μM, 24 hours; DMSO 10-20%", "protocol": "as §5, §3"}}, "note": "Counter-ions that a name gives are not always drawn. The star is where a group is joined. Cbz = O=C(OCc1ccccc1)*; CH2F = FC*", "data": [{"compound": "CC(C)(C)NCC(O)COc1cccc2[nH]c(C#N)cc12", "note": "(stereo not drawn) [Cyanopindolol, cyanopindolol]", "values": [{"measurement": "effect on cellular cAMP levels", "setting": "[1]", "value": "not affected"}]}, {"compound": "CCCCCCCCCOc1ccc2[nH]cc(CCN)c2c1", "note": "[5-NOTO, 5-nonyloxytryptamine oxalate]", "values": [{"measurement": "viability at 48 h, 10 µM", "setting": "[2]", "value": "> 90", "unit": "%"}, {"measurement": "viability at 10 µM", "setting": "[3]", "value": 10, "unit": "%"}, {"measurement": "necrotic/dead fraction", "setting": "[4]; 10 μM, 30 minutes, DMSO 15.83%", "value": 54.17, "unit": "%"}, {"measurement": "specificity for 5HTR1B over 5HTR1A", "setting": "[5]", "value": 400, "unit": "times"}, {"measurement": "cytotoxicity at 10 µM", "setting": "[6]", "value": "> 90", "unit": "%"}, {"measurement": "effect on cellular cAMP levels", "setting": "[1]", "value": "not affected"}, {"measurement": "cytotoxicity at 100 µM", "setting": "[7]", "value": "80 to 90", "unit": "%"}, {"measurement": "% necrosis", "setting": "[8]", "value": 56, "unit": "%"}, {"measurement": "% necrosis", "setting": "[9]", "value": 65, "unit": "%"}, {"measurement": "% necrosis", "setting": "[10]", "value": 25, "unit": "%"}, {"measurement": "effect on cellular ATP levels", "setting": "[11]", "value": "depletes cellular ATP levels in a time and dose dependent fashion"}, {"measurement": "IC50", "setting": "[12]", "value": "~10", "unit": "µM"}, {"measurement": "apoptotic cell fraction (Annexin V positive)", "setting": "[13]", "value": "> 80", "unit": "%"}, {"measurement": "apoptotic cell fraction (Annexin V positive)", "setting": "[14]", "value": "more than 60%"}, {"measurement": "apoptotic cell fraction (Annexin V positive)", "setting": "[15]", "value": "> 70", "unit": "%"}]}, {"compound": "CNS(=O)(=O)Cc1ccc2[nH]cc(CCN(C)C)c2c1", "note": "[sumatriptan]", "values": [{"measurement": "effect on cellular cAMP levels", "setting": "[1]", "value": "no effect"}]}, {"compound": "Cbz-Val-Ala-Asp-CH2F [reference compound]", "values": [{"measurement": "effect on 5-NOTO-induced necrotic/dead cell fraction", "setting": "[4]; pre-treatment with 20 μM Z-VAD-FMK, then 10 μM 5-NOTO", "value": "no effect"}]}]}
